According to US20240376075A1, “POLYMORPHIC FORMS OF AURORA A SELECTIVE INHIBITORS AND USES THEREOF” (Jacobio Pharmaceuticals Co., Ltd., priority 2021, published 2024):

Experiments:
[1] = Crystal form stability experiment (XRPD); format: physicochemical; settings: for Results (XRPD): uncapped or sealed, protected from light, 7 days and 14 days
Procedure: 1. […] The crystal forms stability test was carried out under the specified experimental conditions.

[2] = PK in rat, oral suspension; format: in vivo; settings: Sprague-Dawley, plasma, SD rats, PO: 5 mg/kg, suspension in 0.5% CMC-Na
Procedure: The plasma samples were collected at 0 hour (pre-dose), 0.083, 0.25, 0.5, 1, 2, 4, 6, 8, 24 hours post-dose. Plasma drug concentration was detected by LC-MS/MS. Pharmacokinetic parameters were calculated using WinNonlin's software with non-compartmental model.

[3] = PK in dog, oral suspension; format: in vivo, Beagle dogs; settings: for AUC(0-t) / Cmax / half-life: dog, plasma, Beagle dogs, suspension in 0.5% CMC-Na
Procedure: Then plasma samples were collected at 0 hour (pre-dose), 0.083, 0.25, 0.5, 1, 2, 4, 6, 8, 24 hours post-dose. Plasma drug concentration was detected by LC-MS/MS. Pharmacokinetic parameters were calculated using WinNonlin's software with non-compartmental model.

Cc1cc(Nc2nc(C[C@@]3(C(=O)[O-])CCN(Cc4cccc(Cl)c4F)[C@H](C)C3)cc(C)c2F)n[nH]1.[K+] [Polymorph form II, potassium (2R,4R)-1-(3-chloro-2-fluorobenzyl)-4-((5-fluoro-4-methyl-6-((5-methyl-1H-pyrazol-3-yl)amino)pyridin-2-yl)methyl)-2-methylpiperidine-4-carboxylate]
solid form conversion ([1]; after drying under 40° C. overnight): converted to polymorph form I

Cc1cc(Nc2nc(C[C@@]3(C(=O)[O-])CCN(Cc4cccc(Cl)c4F)[C@H](C)C3)cc(C)c2F)n[nH]1.[K+] [Polymorph form III, potassium (2R,4R)-1-(3-chloro-2-fluorobenzyl)-4-((5-fluoro-4-methyl-6-((5-methyl-1H-pyrazol-3-yl)amino)pyridin-2-yl)methyl)-2-methylpiperidine-4-carboxylate]
solid form conversion ([1]; when cooled back to room temperature): converted to polymorph form I

Cc1cc(Nc2nc(C[C@@]3(C(=O)[O-])CCN(Cc4cccc(Cl)c4F)[C@H](C)C3)cc(C)c2F)n[nH]1.[K+] [amorphous, potassium (2R,4R)-1-(3-chloro-2-fluorobenzyl)-4-((5-fluoro-4-methyl-6-((5-methyl-1H-pyrazol-3-yl)amino)pyridin-2-yl)methyl)-2-methylpiperidine-4-carboxylate]
solid form conversion ([1]; sealed for more than two weeks): transformed to Polymorph form I

Cc1cc(Nc2nc(C[C@@]3(C(=O)[O-])CCN(Cc4cccc(Cl)c4F)[C@H](C)C3)cc(C)c2F)n[nH]1.[K+] [polymorph form I, potassium (2R,4R)-1-(3-chloro-2-fluorobenzyl)-4-((5-fluoro-4-methyl-6-((3-methyl-1H-pyrazol-5-yl)amino)pyridin-2-yl)methyl)-2-methylpiperidine-4-carboxylate monohydrate]
Results (XRPD) ([1]; Accelerated (40° C. ± 2° C., 75% RH ± 10% RH)): Polymorph form I
Results (XRPD) ([1]; Long-time (25° C. ± 2° C., 65% RH ± 10% RH)): Polymorph form I
relative stability of the forms ([1]; at room temperature): most stable
crystal form stability ([1]; long-term and accelerated conditions for 14 days): remained unchanged
AUC(0-t) [2]: 93300 ng·h/mL
Cmax [2]: 12400 ng/mL
half-life [2]: 4.11 h
AUC(0-t) ([3]; PO: 3 mg/kg): 45500 ng·h/mL
Cmax ([3]; PO: 3 mg/kg): 14400 ng/mL
half-life ([3]; PO: 3 mg/kg): 8.12 h
AUC(0-t) ([3]; PO: 10 mg/kg): 165000 ng·h/mL
Cmax ([3]; PO: 10 mg/kg): 45000 ng/mL
half-life ([3]; PO: 10 mg/kg): 4.51 h
absorption and exposure in vivo ([3]; oral, summary of Examples 6 and 7 (rat and dog)): great absorption and a high exposure
